{"source": "paper PMC5303819", "about": "“Cryptic bioactivity capacitated by synthetic hybrid plant peptides” (Nature Communications, 2017)", "key": {"[1]": {"system": "Arabidopsis thaliana root", "assay": "Root-shortening assay (root length)", "assay_type": "in vivo", "details": "for root-shortening activity: 1 μM peptide, 14-day-old root length, Fig. 1b, n=13-20; for CLV3-type activity: root 1 µM (stele 10 µM), Supplementary Fig. 8", "protocol": "(§1) For root-length measurement, plants were germinated and grown vertically on half-strength Murashige and Skoog (MS) medium supplemented with 1% sucrose and peptide/control solution at 22 °C under continuous light. To observe the RAM, 4-day-old roots were excised and mounted in clearing solution (chloral hydrate/glycerol/water=8:1:2) before imaging with light microscope (Axio Imager.A2, Zeiss)."}, "[2]": {"system": "root apical meristem (RAM)", "assay": "Root apical meristem (RAM) morphology", "assay_type": "in vivo, Arabidopsis thaliana", "details": "1 μM peptide, 4-day-old, wild type, Fig. 1c", "protocol": "as §1"}, "[3]": {"system": "hypocotyl stele", "assay": "Stele-thickening assay (hypocotyl stele width)", "assay_type": "in vivo, Arabidopsis thaliana", "details": "for effect on stele radial growth / stele width: 10 μM peptide, liquid medium, 10-day-old hypocotyl, Fig. 1e,f", "protocol": "(§2) For the observation of stele and leaf vein, seeds were germinated and cultured with shaking at 110 r.p.m. at 22 °C under continuous light in liquid half-strength MS medium supplemented with 1% sucrose and peptide/control solution. 10-day-old seedlings were fixed in a 1:3 mixture of acetic acid/ethanol, washed with water and mounted in clearing solution (chloral hydrate/glycerol/water=8:1:2) before imaging with a light microscope (Axio Imager.A2, Zeiss)."}, "[4]": {"system": "Arabidopsis thaliana root", "details": "cited from earlier work", "source_text": "CLV3-like activities have also been reported in other 18 CLE peptides. […] We analysed the structure–activity relationship between CLV3 (Fig. 1a, peptide 1) and CLE25 (Fig. 1a, peptide 2) by swapping the residues at 2nd, 5th, 10th and 12th positions (Fig. 1a, peptide 3–16). […] Although all the chimera peptides shortened the root, only the peptide 15, hereafter call ..."}, "[5]": {"molecular_target": "T1, CLV1 ectodomain (CLV1-HT) (Arabidopsis thaliana, UniProt Q9SYQ8)", "T1 construct": "applied it to the membrane fractions containing receptor ectodomains expressed in tobacco cells; made in house; host or cells: tobacco BY-2 cells (microsomal fraction)", "T1 sequence (Q9SYQ8 25-638 limits assumed)": "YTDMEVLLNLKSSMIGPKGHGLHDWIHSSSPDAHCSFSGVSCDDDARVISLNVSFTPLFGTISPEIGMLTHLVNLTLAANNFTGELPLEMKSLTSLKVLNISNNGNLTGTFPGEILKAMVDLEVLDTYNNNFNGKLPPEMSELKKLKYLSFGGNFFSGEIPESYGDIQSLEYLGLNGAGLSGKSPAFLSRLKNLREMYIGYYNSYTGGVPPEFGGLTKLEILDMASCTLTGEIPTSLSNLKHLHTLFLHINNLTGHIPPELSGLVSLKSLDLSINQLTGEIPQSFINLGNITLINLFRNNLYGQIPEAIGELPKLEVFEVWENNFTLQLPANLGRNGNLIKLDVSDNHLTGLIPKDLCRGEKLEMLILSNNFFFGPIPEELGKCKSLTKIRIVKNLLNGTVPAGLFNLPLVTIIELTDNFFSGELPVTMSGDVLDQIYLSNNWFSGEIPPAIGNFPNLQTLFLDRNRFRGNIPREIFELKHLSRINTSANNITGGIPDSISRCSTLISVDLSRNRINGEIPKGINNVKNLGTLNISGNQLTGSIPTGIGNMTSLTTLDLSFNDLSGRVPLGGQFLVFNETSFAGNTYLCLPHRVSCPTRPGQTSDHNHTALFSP", "assay": "Photo-affinity labelling with [125I]ASA-KIN, CLV1", "assay_type": "binding", "protocol": "(§3) Aliquots (1,000 μg) of microsomal proteins for Halo-tagged receptors (CLV1-HT[10], TDR-HT[7] and CLV2-HT[20]) from tobacco BY-2 cells were suspended in 250 μl binding buffer (50 mM MES-KOH pH 5.5 with 100 mM sucrose) containing 30 nM [^125I]ASA-KIN in the presence or absence of various concentrations of competitor peptides indicated in corresponding figure legends and then incubated for 10 min on ice. The bound and free [^125I]ASA-KIN were separated by layering the reaction mixture onto 900 μl of wash buffer (50 mM MES-KOH pH 5.5 with 500 mM sucrose) and centrifuging for 5 min at 100,000 g at 4 °C. After discarding the supernatant, the pellet was irradiated on ice for 20 min with an ultraviolet lamp (model ENF-260C/J (365 nm), Spectronics Co. Ltd) at a distance of 1 cm. The cross-linked membrane proteins were solubilized, immunoprecipitated by using HaloTag antibody and separated by SDS–PAGE on a 7.5% acrylamide gel. The dried gels were exposed to the bio-imaging plate (MS 2,025, Fujifilm) for 2 days at room temperature and the plates were analysed using a bio-imaging analyser (Typhoon FLA 900, GE)."}, "[6]": {"molecular_target": "T2, TDR ectodomain (TDR-HT) (Arabidopsis thaliana, UniProt Q9FII5)", "T2 construct": "applied it to the membrane fractions containing receptor ectodomains expressed in tobacco cells; made in house; host or cells: tobacco BY-2 cells (microsomal fraction)", "T2 sequence (Q9FII5 30-652 limits assumed)": "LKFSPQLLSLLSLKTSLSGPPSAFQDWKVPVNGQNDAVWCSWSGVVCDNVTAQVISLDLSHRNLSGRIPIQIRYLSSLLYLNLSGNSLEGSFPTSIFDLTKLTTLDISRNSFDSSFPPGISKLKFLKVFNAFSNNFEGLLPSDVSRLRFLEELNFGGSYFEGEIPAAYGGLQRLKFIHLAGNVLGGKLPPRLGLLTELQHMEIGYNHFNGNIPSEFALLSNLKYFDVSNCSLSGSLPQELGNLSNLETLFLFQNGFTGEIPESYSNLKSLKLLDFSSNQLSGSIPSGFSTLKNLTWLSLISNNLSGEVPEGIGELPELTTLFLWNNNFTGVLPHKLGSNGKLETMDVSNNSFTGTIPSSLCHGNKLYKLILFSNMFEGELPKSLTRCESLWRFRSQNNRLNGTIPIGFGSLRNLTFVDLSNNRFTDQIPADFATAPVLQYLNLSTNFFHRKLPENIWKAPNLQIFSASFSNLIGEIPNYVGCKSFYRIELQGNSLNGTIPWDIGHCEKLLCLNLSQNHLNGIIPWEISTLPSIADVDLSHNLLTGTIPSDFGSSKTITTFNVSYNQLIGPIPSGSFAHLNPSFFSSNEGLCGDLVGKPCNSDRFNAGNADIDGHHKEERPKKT", "assay": "Photo-affinity labelling with [125I]ASA-KIN, TDR", "assay_type": "binding", "protocol": "as §3"}, "[7]": {"molecular_target": "T3, CLV2 ectodomain (CLV2-HT) (Arabidopsis thaliana, UniProt O80809)", "T3 construct": "made in house; host or cells: tobacco BY-2 cells (microsomal fraction)", "T3 sequence (O80809 26-686 limits assumed)": "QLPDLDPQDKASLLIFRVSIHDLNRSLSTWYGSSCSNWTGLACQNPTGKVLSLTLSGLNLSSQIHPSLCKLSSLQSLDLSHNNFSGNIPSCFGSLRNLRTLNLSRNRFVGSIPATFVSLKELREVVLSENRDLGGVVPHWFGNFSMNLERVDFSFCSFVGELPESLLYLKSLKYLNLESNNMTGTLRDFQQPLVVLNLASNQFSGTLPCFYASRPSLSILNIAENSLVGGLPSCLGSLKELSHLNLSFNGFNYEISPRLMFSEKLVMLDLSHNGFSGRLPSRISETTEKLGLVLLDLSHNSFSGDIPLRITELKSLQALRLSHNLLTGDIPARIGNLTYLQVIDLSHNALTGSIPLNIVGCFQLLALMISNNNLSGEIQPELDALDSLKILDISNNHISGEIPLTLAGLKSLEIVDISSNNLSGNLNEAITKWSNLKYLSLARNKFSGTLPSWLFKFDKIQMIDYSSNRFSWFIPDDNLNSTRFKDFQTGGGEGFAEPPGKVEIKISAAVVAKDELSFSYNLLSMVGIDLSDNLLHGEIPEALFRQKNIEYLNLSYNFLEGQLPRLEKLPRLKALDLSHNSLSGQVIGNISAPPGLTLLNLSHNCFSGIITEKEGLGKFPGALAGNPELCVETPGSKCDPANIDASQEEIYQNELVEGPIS", "assay": "Photo-affinity labelling with [125I]ASA-KIN, CLV2", "assay_type": "binding", "details": "30 nM [125I]ASA-KIN probe, same condition, Supplementary Fig. 6", "protocol": "as §3"}, "[8]": {"system": "shoot apical meristem (SAM)", "assay": "Shoot apical meristem (SAM) morphology in sections", "assay_type": "in vivo, Arabidopsis thaliana", "details": "10 μM peptide, 10-day treatment", "protocol": "To observe the SAM, plants were germinated and grown at 22 °C under continuous light on half-strength MS medium supplemented with 1% sucrose and 10 μM peptide/control solution. To make sections, roots and leaves were cut off from 10-day-old seedlings, then fixed in FAA solution (50% ethanol:10% formalin:5% acetic acid in water) and embedded into Technovit 7,100 resin according to the manufacturer's instructions (Heraeus Kulzer). Four-micrometre-thin sections were made using a microtome (RM2235, Leica), stained with 0.05% toluidine blue and mounted in Entellan New (Merck) before observation with a light microscope (Axio Imager.A2, Zeiss)."}, "[9]": {"system": "leaf vein xylem strands", "assay": "Leaf vein xylem strand observation", "assay_type": "in vivo, Arabidopsis thaliana", "details": "10 μM peptide, 10-day-old clv2-101, Fig. 2c", "protocol": "as §2"}, "[10]": {"details": "wild type, Supplementary Fig. 1"}, "[11]": {"details": "30 nM probe, MES-KOH pH 5.5, 10 min on ice, tobacco BY-2 microsomes, Fig. 3c"}, "[12]": {"details": "various concentrations of KIN, Supplementary Fig. 7"}}}
{"substance": "CLE25: endogenously encoded CLE peptide sequence, CLV3-type, synthesized without hydroxyprolines (RKVPNGPDPIHN; CLE25p no hydroxyprolines; UniProt Q8LFL4 58-69, looked up)", "values": [{"measurement": "root-shortening activity", "setting": "[1]; wild type", "result": "showed root-shortening activities"}, {"measurement": "concentration at which bioactivity starts in root shortening assay", "setting": "[1]; [10]", "result": "~ 100 nM"}, {"measurement": "size of the root apical meristem (RAM)", "setting": "[2]", "result": "reduced"}, {"measurement": "effect on stele radial growth / stele width", "setting": "[3]; wild type, 2b", "result": "reduce the thickening of vascular tissues in the hypocotyl"}, {"measurement": "effectiveness in the root-shortening assay", "setting": "[4]", "result": "more effective than CLV3"}]}
{"substance": "[^125I]-radiolabelled [(4-azidosalicyl)Lys^2]KIN [[^125I]ASA-KIN]", "values": [{"measurement": "photo-affinity labelling of CLV1 ectodomain", "setting": "[5]; [11]", "result": "covalently labelled"}, {"measurement": "competitive displacement of probe binding to CLV1 by KIN", "setting": "[5]; [12]", "result": "binds to these receptors in a similar manner"}, {"measurement": "photo-affinity labelling of TDR ectodomain", "setting": "[6]; [11]", "result": "covalently labelled"}, {"measurement": "competitive displacement of probe binding to TDR by KIN", "setting": "[6]; [12]", "result": "binds to these receptors in a similar manner"}, {"measurement": "interaction with CLV2 ectodomain", "setting": "[7]", "result": "no interaction was detected"}]}
{"substance": "[(4-azidosalicyl)Lys^2]KIN [ASA-KIN]", "values": [{"measurement": "bioactivity compared with KIN, root shortening", "setting": "[1]; 10 nM-1 µM, Supplementary Fig. 5b", "result": "reduced compared with the original KIN"}, {"measurement": "bioactivity compared with KIN, hypocotyl stele thickening", "setting": "[3]; Supplementary Fig. 5c", "result": "reduced compared with the original KIN"}]}
{"substance": "CLV3: endogenously encoded 12 amino-acid CLE peptide, chemically synthesized without hydroxyprolines", "values": [{"measurement": "root-shortening activity", "setting": "[1]; wild type", "result": "showed root-shortening activities"}, {"measurement": "response of clv2-101 mutant, root length and RAM size", "setting": "[1]; clv2-101 mutant, Supplementary Fig. 3a,b", "result": "resistant"}, {"measurement": "dose-response of root growth attenuation", "setting": "[1]; wild type, 1 nM-1 µM, Supplementary Fig. 1", "result": "attenuates the root growth in a lower concentration than CLE25 and KIN"}, {"measurement": "concentration at which bioactivity starts in root shortening assay", "setting": "[1]; [10]", "result": "~ 10 nM"}, {"measurement": "size of the root apical meristem (RAM)", "setting": "[2]", "result": "reduced"}, {"measurement": "SAM of clv1-101 and clv2-101 mutants after treatment", "setting": "[8]; loss-of-function mutants, Fig. 2a", "result": "maintained"}, {"measurement": "effect on SAM", "setting": "[8]; wild type, Fig. 1d", "result": "disappeared"}, {"measurement": "response of clv2-101 mutant to inhibitory activity on stele width", "setting": "[3]; 100 nM peptide, clv2-101 mutant, Fig. 2b", "result": "insensitive"}, {"measurement": "effect on stele width at 100 nM", "setting": "[3]; 100 nM peptide, wild type, 10-day-old, Fig. 1g, 2b", "result": "reduced the stele width"}, {"measurement": "effect on stele radial growth / stele width", "setting": "[3]; wild type, 2b", "result": "reduced radial growth of the stele"}, {"measurement": "lowest concentration with negative effect on stele growth", "setting": "[3]; wild type, 10-day-old, dose-response Fig. 1g", "result": 30, "unit": "nM"}, {"measurement": "effect on xylem differentiation in leaf vein", "setting": "[9]", "result": "not observed"}, {"measurement": "competition of [125I]ASA-KIN labelling of CLV1", "setting": "[5]; 1,000-fold excess non-radio-labelled peptide, Fig. 3c", "result": "competitively inhibited"}]}
{"substance": "CLV3-S^11th: CLV3 with H-to-S substitution at the 11th position (RTVPSGPDPLSHH; MCLV3; UniProt Q9XF04 70-82, looked up, variant H11S)", "values": [{"measurement": "CLV3-type activity", "setting": "[1]", "result": "neither CLV3 nor CLE41 activity"}, {"measurement": "CLV3-type activity", "setting": "[1]; listed as peptide 24", "result": "even weaker than KIN-1δ"}, {"measurement": "CLE41-type activity", "setting": "[3]; stele 10 µM, Supplementary Fig. 8", "result": "neither CLV3 nor CLE41 activity"}, {"measurement": "interaction with CLV1 in competitive displacement assay with [125I]ASA-KIN", "setting": "[5]; Supplementary Fig. 10", "result": "retained the interaction with CLV1"}]}
